Test results taken from US12454529B2, “Piperazine cyclic ureas” (SIRONAX LTD., priority 2020, dated 2025).

These molecules were tested on HT-29 cells (assay: HT-29 cell necrosis/necroptosis inhibition (TNF-α + SMAC mimetic + zVAD-FMK; CellTiter-Glo cell viability)). Conditions: Homo sapiens, HT-29, 20 h, read-out: EC50 (Cell activity; Necrosis/Necroptosis Inhibitory Activity, Compounds 1-142).
Assay type: cell-based
Procedure, shortened: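 Necroptosis was driven by TNF-α 10 ng/ml plus SMAC mimetic 6 μM and zVAD-FMK 10 μM in serum-free medium, with compounds as a 10-point threefold titration. After 20 h at 37 °C, ATP-based luminescence was read; EC50 values are geometric means of duplicate curves.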
With Cn1cnn(-c2nc(N3CCN(C(=O)N4N=CC[C@H]4c4cc(F)cc(C#N)c4)CC3)ncc2F)c1=O [Compound 140, (S)-3-fluoro-5-(1-(4-(5-fluoro-4-(4-methyl-5-oxo-4,5-dihydro-1H-1,2,4-triazol-1-yl)pyrimidin-2-yl)piperazine-1-carbonyl)-4,5-dihydro-1H-pyrazol-5-yl)benzonitrile] the EC50 was 0.1 to 100 nM.

Same assay, conditions: Homo sapiens; HT-29 cells, TNF-α 10 ng/ml + SMAC mimetic 6 μM + zVAD-FMK 10 μM, 20 hours; geometric mean, 10 points in duplicate; read-out: EC50 (Cell activity; Necrosis/Necroptosis Inhibitory Activity, Compounds 1-142)
O=C(N1CCN(c2ncc(F)c(-c3cnn[nH]3)n2)CC1)N1N=CC[C@H]1c1cc(F)cc(F)c1 [Compound 8, (S)-(5-(3,5-difluorophenyl)-4,5-dihydro-1H-pyrazol-1-yl)(4-(5-fluoro-4-(1H-1,2,3-triazol-5-yl)pyrimidin-2-yl)piperazin-1-yl)methanone] gave an EC50 of 0.1 to 100 nM. With Cc1cnn(C)c1-c1nc(N2CCN(C(=O)N3N=CC[C@H]3c3cc(F)cc(C#N)c3)CC2)ncc1F [Compound 62, (S)-3-(1-(4-(4-(1,4-dimethyl-1H-pyrazol-5-yl)-5-fluoropyrimidin-2-yl)piperazine-1-carbonyl)-4,5-dihydro-1H-pyrazol-5-yl)-5-fluorobenzonitrile] the EC50 was 0.1 to 100 nM. Cc1cc(-c2nc(N3CCN(C(=O)N4N=CC[C@H]4c4cncc(F)c4)CC3)ncc2F)n(C)n1 [Compound 86, (S)-(4-(4-(1,3-dimethyl-1H-pyrazol-5-yl)-5-fluoropyrimidinyl)piperazin-1-yl)(5-(5-fluoropyridin-3-yl)-4,5-dihydro-1H-pyrazol-1-yl)methanone] showed an EC50 of 0.1 to 100 nM. For Cn1c(-c2nc(N3CCN(C(=O)N4N=CC[C@H]4c4cc(F)cc(C#N)c4)CC3)ncc2F)cc(=O)n(C)c1=O [Compound 51, (S)-3-fluoro-5-(1-(4-(5-fluoro-1′,3′-dimethyl-2′,6′-dioxo-1′,2′,3′,6′-tetrahydro-[4,4′-bipyrimidin]-2-yl)piperazine-1-carbonyl)-4,5-dihydro-1H-pyrazol-5-yl)benzonitrile], the EC50 was 0.1 to 100 nM. Cc1nnc(-c2nc(N3CCN(C(=O)N4N=CC[C@H]4c4cc(F)cc(F)c4)CC3)ncc2F)s1 [Compound 63, (S)-(5-(3,5-difluorophenyl)-4,5-dihydro-1H-pyrazol-1-yl)(4-(5-fluoro-4-(5-methyl-1,3,4-thiadiazol-2-yl)pyrimidin-2-yl)piperazin-1-yl)methanone] gave an EC50 of 0.1 to 100 nM. For Cc1cc(O)n(-c2nc(N3CCN(C(=O)N4N=CC[C@H]4c4cc(F)cc(C#N)c4)CC3)ncc2F)n1 [Compound 141, (S)-3-fluoro-5-(1-(4-(5-fluoro-4-(5-hydroxy-3-methyl-1H-pyrazol-1-yl)pyrimidin-2-yl)piperazine-1-carbonyl)-4,5-dihydro-1H-pyrazol-5-yl)benzonitrile], the EC50 was 0.1 to 100 nM. In the case of NC(=O)c1cnn(-c2ccnc(N3CCN(C(=O)N4N=CC[C@H]4c4cccc(F)c4)CC3)n2)c1 [Compound 17, (S)-1-(2-(4-(5-(3-fluorophenyl)-4,5-dihydro-1H-pyrazole-1-carbonyl)piperazin-1-yl)pyrimidin-4-yl)-1H-pyrazole-4-carboxamide], the EC50 is reported as 0.1 to 100 nM. NC(=O)c1cnn(-c2nc(N3CCN(C(=O)N4N=CC[C@H]4c4ccccc4)CC3)ncc2F)c1 [Compound 111, (S)-1-(5-fluoro-2-(4-(5-phenyl-4,5-dihydro-1H-pyrazole-1-carbonyl)piperazin-1-yl)pyrimidin-4-yl)-1H-pyrazole-4-carboxamide] gave an EC50 of 0.1 to 100 nM. For Cn1cc(-c2nc(N3CCN(C(=O)N4N=CC[C@H]4c4cc(F)cc(C#N)c4)CC3)ncc2F)nn1 [Compound 40], the EC50 was 0.1 to 100 nM.

Same assay, conditions: Homo sapiens; HT-29 cells, TNF-α 10 ng/ml + SMAC mimetic 6 μM + zVAD-FMK 10 μM, 20 hours; geometric mean, 10 points in duplicate; read-out: EC50 (Cell activity; Necrosis/Necroptosis Inhibitory Activity, Compounds 143-323)
Molecule Cc1nn(-c2ccnc(N3CCN(C(=O)N4N=CC[C@H]4c4cc(F)cc(C#N)c4)CC3)n2)c(C)c1Cl [Compound 288, (S)-3-(1-(4-(4-(4-chloro-3,5-dimethyl-1H-pyrazol-1-yl)pyrimidin-2-yl)piperazine-1-carbonyl)-4,5-dihydro-1H-pyrazol-5-yl)-5-fluorobenzonitrile] has an EC50 of 0.1 to 100 nM. Work on Cc1nc(C)n(-c2nc(N3CCN(C(=O)N4N=CC[C@H]4c4ncc(C)s4)CC3)ncc2F)n1 [Compound 241, (S)-(4-(4-(3,5-dimethyl-1H-1,2,4-triazol-1-yl)-5-fluoropyrimidin-2-yl)piperazin-1-yl)(5-(5-methylthiazol-2-yl)-4,5-dihydro-1H-pyrazol-1-yl)methanone] yielded an EC50 of 0.1 to 100 nM. With Cc1nnc(-c2nc(N3CCN(C(=O)N4N=CC[C@H]4c4cc(F)cc(F)c4)CC3)ncc2F)n1C [Compound 178, (S)-(5-(3,5-difluorophenyl)-4,5-dihydro-1H-pyrazol-1-yl)(4-(4-(4,5-dimethyl-4H-1,2,4-triazol-3-yl)-5-fluoropyrimidin-2-yl)piperazin-1-yl)methanone] the EC50 was 0.1 to 100 nM. Molecule Cc1nc(C)n(-c2nccc(N3CCN(C(=O)N4N=CC[C@H]4c4cc(F)cc(C#N)c4)CC3)n2)n1 [Compound 244, (S)-3-(1-(4-(2-(3,5-dimethyl-1H-1,2,4-triazol-1-yl)pyrimidin-4-yl)piperazine-1-carbonyl)-4,5-dihydro-1H-pyrazol-5-yl)-5-fluorobenzonitrile] has an EC50 of 0.1 to 100 nM. For Cn1nc(CO)nc1-c1ccnc(N2CCN(C(=O)N3N=CC[C@H]3c3cc(F)cc(C#N)c3)CC2)n1 [Compound 171, (S)-3-fluoro-5-(1-(4-(4-(3-(hydroxymethyl)-1-methyl-1H-1,2,4-triazol-5-yl)pyrimidin-2-yl)piperazine-1-carbonyl)-4,5-dihydro-1H-pyrazol-5-yl)benzonitrile], the EC50 was 0.1 to 100 nM. With Cn1cnc(-c2ccc(F)c(N3CCN(C(=O)N4N=CC[C@H]4c4cc(F)cc(C#N)c4)CC3)n2)n1 [Compound 177, (S)-3-fluoro-5-(1-(4-(3-fluoro-6-(1-methyl-1H-1,2,4-triazol-3-yl)pyridin-2-yl)piperazine-1-carbonyl)-4,5-dihydro-1H-pyrazol-5-yl)benzonitrile] the EC50 was 100 to 1000 nM. With Cc1ncc(C2CC=NN2C(=O)N2CCN(c3cc(-c4c(C)cnn4C)ncc3F)CC2)s1 (stereo not drawn) [Compound 292, (4-(2-(1,4-dimethyl-1H-pyrazol-5-yl)-5-fluoropyridin-4-yl)piperazin-1-yl)(5-(2-methylthiazol-5-yl)-4,5-dihydro-1H-pyrazol-1-yl)methanone] the EC50 was 100 to 1000 nM. Cc1nc(C)n(-c2nc(N3CCN(C(=O)N4N=CCC4c4coc(C)n4)CC3)ncc2F)n1 (stereo not drawn) [Compound 211, (4-(4-(3,5-dimethyl-1H-1,2,4-triazol-1-yl)-5-fluoropyrimidin-2-yl)piperazin-1-yl)(5-(2-methyloxazol-4-yl)-4,5-dihydro-1H-pyrazol-1-yl)methanone] showed an EC50 of 0.1 to 100 nM. For Cc1nc(C)n(-c2cc(N3CCN(C(=O)N4N=CC[C@H]4c4cc(F)cc(F)c4)CC3)c(F)cn2)n1 [Compound 271, (S)-(5-(3,5-difluorophenyl)-4,5-dihydro-1H-pyrazol-1-yl)(4-(2-(3,5-dimethyl-1H-1,2,4-triazol-1-yl)-5-fluoropyridin-4-yl)piperazin-1-yl)methanone], the EC50 was 0.1 to 100 nM. For O=C(N1CCN(c2ncc(F)c(-n3nccc3C(F)(F)F)n2)CC1)N1N=CC[C@H]1c1cncc(F)c1 [Compound 308, (S)-(4-(5-fluoro-4-(5-(trifluoromethyl)-1H-pyrazol-1-yl)pyrimidin-2-yl)piperazin-1-yl)(5-(5-fluoropyridin-3-yl)-4,5-dihydro-1H-pyrazol-1-yl)methanone], the EC50 was 0.1 to 100 nM. Work on Cc1nc(C)n(-c2nc(N3CCN(C(=O)N4N=CCC4c4nccs4)CC3)ncc2F)n1 (stereo not drawn) [Compound 217, (4-(4-(3,5-dimethyl-1H-1,2,4-triazol-1-yl)-5-fluoropyrimidin-2-yl)piperazin-1-yl)(5-(thiazol-2-yl)-4,5-dihydro-1H-pyrazol-1-yl)methanone] yielded an EC50 of 0.1 to 100 nM. Work on Cc1nn(-c2cc(N3CCN(C(=O)N4N=CC[C@H]4c4cncc(F)c4)CC3)ncn2)c(C)c1C(N)=O [Compound 284, (S)-1-(6-(4-(5-(5-fluoropyridin-3-yl)-4,5-dihydro-1H-pyrazole-1-carbonyl)piperazin-1-yl)pyrimidin-4-yl)-3,5-dimethyl-1H-pyrazole-4-carboxamide] yielded an EC50 of 100 to 1000 nM. Work on Cc1nn(-c2cc(N3CCN(C(=O)N4N=CC[C@H]4c4cncc(F)c4)CC3)ncn2)c(C)c1Cl [Compound 290, (S)-(4-(6-(4-chloro-3,5-dimethyl-1H-pyrazol-1-yl)pyrimidin-4-yl)piperazin-1-yl)(5-(5-fluoropyridin-3-yl)-4,5-dihydro-1H-pyrazol-1-yl)methanone] yielded an EC50 of 0.1 to 100 nM. Cc1nc(C(N)=O)nn1-c1nc(N2CCN(C(=O)N3N=CC[C@H]3c3cc(F)cc(F)c3)CC2)ncc1F [Compound 252, (S)-1-(2-(4-(5-(3,5-difluorophenyl)-4,5-dihydro-1H-pyrazole-1-carbonyl)piperazin-1-yl)-5-fluoropyrimidin-4-yl)-5-methyl-1H-1,2,4-triazole-3-carboxamide] was tested, and the EC50 was 0.1 to 100 nM. Cc1cnn(C)c1-c1ccc(F)c(N2CCN(C(=O)N3N=CCC3c3cncs3)CC2)n1 (stereo not drawn) [Compound 296, (4-(6-(1,4-dimethyl-1H-pyrazol-5-yl)-3-fluoropyridin-2-yl)piperazinyl)(5-(thiazol-5-yl)-4,5-dihydro-1H-pyrazol-1-yl)methanone] showed an EC50 of 0.1 to 100 nM. For Cc1nn(-c2cc(N3CCN(C(=O)N4N=CC[C@H]4c4cncc(F)c4)CC3)ncn2)c(C)c1C#N [Compound 286, (S)-1-(6-(4-(5-(5-fluoropyridin-3-yl)-4,5-dihydro-1H-pyrazole-1-carbonyl)piperazin-1-yl)pyrimidin-4-yl)-3,5-dimethyl-1H-pyrazole-4-carbonitrile], the EC50 was 0.1 to 100 nM. In the case of Cc1nc(C)n(-c2nc(N3CCN(C(=O)N4N=CC[C@H]4c4cncc(F)c4)CC3)c(F)cc2F)n1 [Compound 234, (S)-(4-(6-(3,5-dimethyl-1H-1,2,4-triazol-1-yl)-3,5-difluoropyridin-2-yl)piperazin-1-yl)(5-(5-fluoropyridin-3-yl)-4,5-dihydro-1H-pyrazol-1-yl)methanone], the EC50 is reported as 0.1 to 100 nM.
